In US4181732A, “1-Branched-alkylcarbonyl-3-(3,5-dihalophenyl)imidazolidine-2,4-diones” (Sumitomo Chemical Company, Limited, priority 1977, dated 1980):

Tests used:
[1] = system: black spot of pear (Alternaria kikuchiana); assay: Protective activity test on black spot of pear; assay type: in vivo; conditions: 500 ppm active ingredient; pear var. 20-Seiki, sprayed 7 days before inoculation; no treatment 77.8
[2] = system: Alternaria leaf spot of apple (Alternaria mali); assay: Protective activity test on Alternaria leaf spot of apple; assay type: in vivo; conditions: 500 ppm active ingredient; apple var. Indo, sprayed 6 days before inoculation; no treatment 79.6
[3] = system: blue mold of orange (Penicillium italicum); assay: Protective activity test on blue mold of orange; assay type: in vivo; conditions: orange fruits var. Unshu dipped 1 minute, index 0-5, 7 days after inoculation, no treatment 5.0
Experimental: Protective activity test on blue mold of orange (Penicillium italicum): Orange fruits (var.: Unshu) were well washed with water and air-dried. Each of the emulsifiable concentrates containing the test compounds was diluted with water to a required concentration and the air-dried orange fruits were dipped in the aqueous solution for 1 minute. After air-drying, the surface of the fruit was inoculated by spraying a spore suspension of Pencillium italicum cultured in a potato agar medium for 5 days. […] The results are shown in the mean value of disease index.

[4] = system: fungicide-resistant strain of black spot fungus (Alternaria kikuchiana) resistant to Polyoxin; assay: Fungicidal activity test on fungicide-resistant pathogens: mycelial growth inhibition on agar plate, Polyoxin-resistant strain; assay type: cell-based; conditions: 96 h, 27° C., 4 days, read-out: Percentage of growth inhibition, fungicide-resistant strain; for inhibition at 1 ppm: 1 ppm active ingredient; for inhibition at 10 ppm: 10 ppm active ingredient
[5] = system: wild (susceptible) strain of Alternaria kikuchiana; assay: Fungicidal activity test: mycelial growth inhibition on agar plate, wild susceptible strain; assay type: cell-based; conditions: 96 h, 27° C., 4 days, read-out: Percentage of growth inhibition, wild susceptible strain; for inhibition at 1 ppm: 1 ppm active ingredient; for inhibition at 10 ppm: 10 ppm active ingredient

| SMILES | Disease severity [1] [%] | Disease severity [2] [%] | Mean value of disease index ([3]; 100 ppm active ingredient) | also measured |
| --- | --- | --- | --- | --- |
| CC(C)C(=O)N1CC(=O)N(c2cc(Cl)cc(Cl)c2)C1=O [Compound 1] | 4.3 | 7.2 | 0.5 | – |
| CC(C)CC(=O)N1CC(=O)N(c2cc(Cl)cc(Cl)c2)C1=O [Compound 2] | 3.0 | 2.4 | 0.0 | inhibition at 1 ppm [4]: 76%; inhibition at 10 ppm [4]: 95%; inhibition at 1 ppm [5]: 78%; inhibition at 10 ppm [5]: 96% |
| CC(C)(C)C(=O)N1CC(=O)N(c2cc(Cl)cc(Cl)c2)C1=O [Compound 3] | 7.4 | 9.6 | 0.2 | – |
| CC(C)(C)CC(=O)N1CC(=O)N(c2cc(Cl)cc(Cl)c2)C1=O [Compound 4] | 8.9 | 5.7 | 0.4 | inhibition at 1 ppm [4]: 61%; inhibition at 10 ppm [4]: 93%; inhibition at 1 ppm [5]: 64%; inhibition at 10 ppm [5]: 92% |
| CC(C)CC(=O)N1CC(=O)N(c2cc(Br)cc(Br)c2)C1=O [Compound 5] | 2.6 | 3.0 | 0.1 | – |
| CCC(C)C(=O)N1CC(=O)N(c2cc(Cl)cc(Cl)c2)C1=O (centres unmarked) [Compound 6] | 5.5 | 8.1 | – | – |
| CCC(C)CC(=O)N1CC(=O)N(c2cc(Cl)cc(Cl)c2)C1=O (centres unmarked) [Compound 7] | 3.7 | 4.1 | – | – |
| CCC(CC)C(=O)N1CC(=O)N(c2cc(Cl)cc(Cl)c2)C1=O [Compound 8] | 4.0 | 3.6 | – | – |
| CCCC(C)C(=O)N1CC(=O)N(c2cc(Cl)cc(Cl)c2)C1=O (centres unmarked) [Compound 9] | 2.1 | 1.7 | – | – |
| CC(C)CCC(=O)N1CC(=O)N(c2cc(Cl)cc(Cl)c2)C1=O [Compound 10] | 9.8 | 9.9 | – | – |
| CCC(=O)N1CC(=O)N(c2cc(Cl)cc(Cl)c2)C1=O [drawing 37, reference compound] | – | – | – | inhibition at 1 ppm [4]: 45%; inhibition at 10 ppm [4]: 69%; inhibition at 1 ppm [5]: 49%; inhibition at 10 ppm [5]: 68% |
| CCC(=O)N1CC(=O)N(c2cc(Cl)cc(Cl)c2)C1=O [drawing 38, reference compound] | 31.6 | – | – | – |
| CCC(=O)N1CC(=O)N(c2cc(Cl)cc(Cl)c2)C1=O [drawing 40, reference compound] | – | 36.8 | – | – |
| CCC(=O)N1CC(=O)N(c2cc(Cl)cc(Cl)c2)C1=O [drawing 43, reference compound] | – | – | – | Mean value of disease index ([3]; 200 ppm active ingredient): 3.0 |
| CC(=O)N1CC(=O)N(c2cc(Cl)cc(Cl)c2)C1=O [reference compound] | – | – | – | Mean value of disease index ([3]; 200 ppm active ingredient): 2.8 |
